Calls of active or inactive are those of the source.
How the values were obtained:
[1] = ATP-based viability loss in HEK293T cells – cell-based, CellTiter-Glo luminescence, dry powder, set 2, cytotoxicity control, dose response (AID 720595); format: functional; conditions: HEK293
[2] = molecular target: Heat shock protein HSP 90-alpha (Homo sapiens, UniProt P07900); format: functional, organism-based
[3] = ATP-based viability loss in HeLa cells – cell-based, CellTiter-Glo luminescence, dry powder, set 2, cytotoxicity control, dose response (AID 720593); format: functional
[4] = NIH-3T3 fibroblast cytotoxicity, dose response, cytotoxicity control, cell-based, fluorescence, Alamar Blue, secondary assay (AID 2327); format: functional;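 note: NIH-3T3 mouse fibroblasts cultured with fluconazole at 8 µg/mL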
Albumin = Albumin (Bos taurus, UniProt P02769); assay: Counterscreen for inhibitors of T-cell receptor (TCR)-CD3 interaction: Fluorescence-based biochemical high throughput dose response assay to identify inhibitors of T-cell receptor (TCR)-CD3 interaction using a TAMRA-labeled BSA probe.; format: functional
[5] = fluconazole-exposed Candida albicans growth modulators – fluorescence, retest, confirmation (AID 2467); format: functional, cell-based
[6] = Luminescence Cell-Based Dose Confirmation HTS to Identify Activators of 5'UTR Stem-Loop Driven Alpha-Synuclein mRNA Translation in H4 Neuroglioblastoma Cells. [Related pubchem assays: 1829 (Project Summary), 1814 (Primary HTS)]; format: functional
[7] = toxicity toward HEK293 cells – cell-based, dry powder samples, cytotoxicity control, dose response (AID 720567); format: functional
H4 = assay: Luminescence Cell-Based Dose Response HTS to Identify Activators of 5'UTR Stem-Loop Driven Prion Protein mRNA Translation in H4 Neuroglioblastoma Cells. [Related pubchem assays: 1829 (Project Summary), 1814 (Primary HTS)]; format: functional; conditions: Homo sapiens
[8] = Luminescence Cell-Based Dose Response HTS to Identify Activators of Luciferase Translation or Activity in H4 […] Cells. [Related pubchem assays: 1829 (Project Summary), 1814 (Primary HTS)]; format: functional
A549 = assay: viability loss in A549 cells – cell-based, plate reader, cherry-pick samples, cytotoxicity control, dose response (AID 687028); format: functional; conditions: Homo sapiens
Beta-lactamase [9] = molecular target: T1, Beta-lactamase (Pseudomonas aeruginosa, UniProt Q79MP6); assay: inhibition of IMP-1 beta-lactamase activity – biochemical, epi-absorbance, selectivity assay for VIM-2 inhibitor project, dose response (AID 1920)
Beta-lactamase [10] = molecular target: Beta-lactamase (Salmonella choleraesuis (strain SC-B67), UniProt Q5J463); assay: Epi-absorbance-based counterscreen for selective VIM-2 inhibitors: dose response biochemical high throughput screening assay to identify inhibitors of TEM-1 serine-beta-lactamase.
[11] = blockers of CRF-binding protein–CRF-R2 complex – cell-based, uHTS hits, 384-well, dose response (AID 651639); format: functional, Homo sapiens; conditions: read-out: IC50_Mean
Beta-lactamase [12] = molecular target: T1, Beta-lactamase; assay: […] counterscreen for selective VIM-2 inhibitors: dose response biochemical high throughput screening assay to identify inhibitors of IMP-1 metallo-beta-lactamase.
[13] = molecular target: T2, Corticotropin-releasing factor receptor 2/Corticotropin-releasing factor-binding protein (Homo sapiens, UniProt P24387+Q13324); assay: activators of CRF receptor 2 with binding protein – uHTS hits, confirmation (AID 602473); format: functional; conditions: read-out: EC50_Mean
T2 sequence (Q13324 whole entry): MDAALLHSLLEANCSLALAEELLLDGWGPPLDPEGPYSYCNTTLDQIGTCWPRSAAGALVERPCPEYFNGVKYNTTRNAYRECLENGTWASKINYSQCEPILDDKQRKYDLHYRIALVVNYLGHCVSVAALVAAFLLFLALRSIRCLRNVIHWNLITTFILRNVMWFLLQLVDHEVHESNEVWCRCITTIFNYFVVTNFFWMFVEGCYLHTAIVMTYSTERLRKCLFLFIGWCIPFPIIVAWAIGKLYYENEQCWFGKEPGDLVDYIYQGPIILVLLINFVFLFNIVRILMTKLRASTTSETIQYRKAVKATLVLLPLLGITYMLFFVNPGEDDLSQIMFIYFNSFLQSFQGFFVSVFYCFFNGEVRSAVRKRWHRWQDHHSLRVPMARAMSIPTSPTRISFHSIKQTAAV
T2 sequence (P24387 whole entry): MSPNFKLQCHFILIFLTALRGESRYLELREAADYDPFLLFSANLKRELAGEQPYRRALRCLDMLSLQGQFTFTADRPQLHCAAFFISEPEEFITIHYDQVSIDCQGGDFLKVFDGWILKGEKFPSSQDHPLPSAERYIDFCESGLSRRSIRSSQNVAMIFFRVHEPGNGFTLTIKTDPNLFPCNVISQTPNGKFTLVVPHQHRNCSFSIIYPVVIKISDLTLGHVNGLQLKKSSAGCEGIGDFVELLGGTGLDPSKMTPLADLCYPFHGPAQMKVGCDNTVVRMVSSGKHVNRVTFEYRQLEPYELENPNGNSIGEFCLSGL

[14] = molecular target: T2, Corticotropin-releasing factor receptor 2/Corticotropin-releasing factor-binding protein; assay: Dose Response confirmation of uHTS hits for small molecule antagonists of the CRF-binding protein and CRF-R2 receptor complex.; format: functional; conditions: read-out: IC50_Mean
Major prion protein = Major prion protein (Homo sapiens, UniProt P04156); format: functional, cell-based
[15] = Luminescence Cell-Based Dose Response to Identify Activators of 5'UTR Stem-Loop Driven Prion Protein mRNA Translation in H4-C Neuroglioblastoma Cells. [Related pubchem assays: 1829 (Project Summary), 1814 (Primary HTS)]; format: functional
Cysteine protease ATG4B = molecular target: T3, Cysteine protease ATG4B (Homo sapiens, UniProt Q9Y4P1); format: functional;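 note: Fluorescence-based dose-response confirmation assay measuring inhibition of ATG4B activity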
T3 sequence (Q9Y4P1 whole entry): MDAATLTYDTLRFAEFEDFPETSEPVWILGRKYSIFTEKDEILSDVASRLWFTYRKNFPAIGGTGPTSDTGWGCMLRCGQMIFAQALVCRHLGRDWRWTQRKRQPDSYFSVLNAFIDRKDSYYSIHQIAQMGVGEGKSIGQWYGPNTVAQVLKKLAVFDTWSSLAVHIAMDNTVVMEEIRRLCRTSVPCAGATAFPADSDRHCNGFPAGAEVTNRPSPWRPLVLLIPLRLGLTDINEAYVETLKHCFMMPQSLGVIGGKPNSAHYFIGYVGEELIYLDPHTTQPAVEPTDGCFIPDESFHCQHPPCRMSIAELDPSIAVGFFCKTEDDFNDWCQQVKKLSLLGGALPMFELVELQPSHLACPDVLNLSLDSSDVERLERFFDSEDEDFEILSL

[16] = Luminescence Cell-Based Dose Confirmation to Identify Activators of 5'UTR Stem-Loop Driven Alpha-Synuclein mRNA Translation in H4 Neuroglioblastoma Cells. [Related pubchem assays: 1829 (Project Summary), 1814 (Primary HTS)]; format: functional
[17] = Luminescence Cell-Based Dose Response to Identify Activators of Luciferase Translation or Activity in H4-C Neuroglioblastoma Cells. [Related pubchem assays: 1829 (Project Summary), 1814 (Primary HTS)]; format: functional
[18] = molecular target: Fructose-bisphosphate aldolase (Mycobacterium tuberculosis, UniProt P9WQA3); assay: Fluorescence-based biochemical high throughput dose response assay for inhibitors of the fructose-bisphosphate aldolase (FBA) of M. tuberculosis.; format: functional
Protein skinhead-1 = molecular target: T4, Protein skinhead-1 (Caenorhabditis elegans, UniProt P34707); format: functional
T4 sequence (P34707 whole entry): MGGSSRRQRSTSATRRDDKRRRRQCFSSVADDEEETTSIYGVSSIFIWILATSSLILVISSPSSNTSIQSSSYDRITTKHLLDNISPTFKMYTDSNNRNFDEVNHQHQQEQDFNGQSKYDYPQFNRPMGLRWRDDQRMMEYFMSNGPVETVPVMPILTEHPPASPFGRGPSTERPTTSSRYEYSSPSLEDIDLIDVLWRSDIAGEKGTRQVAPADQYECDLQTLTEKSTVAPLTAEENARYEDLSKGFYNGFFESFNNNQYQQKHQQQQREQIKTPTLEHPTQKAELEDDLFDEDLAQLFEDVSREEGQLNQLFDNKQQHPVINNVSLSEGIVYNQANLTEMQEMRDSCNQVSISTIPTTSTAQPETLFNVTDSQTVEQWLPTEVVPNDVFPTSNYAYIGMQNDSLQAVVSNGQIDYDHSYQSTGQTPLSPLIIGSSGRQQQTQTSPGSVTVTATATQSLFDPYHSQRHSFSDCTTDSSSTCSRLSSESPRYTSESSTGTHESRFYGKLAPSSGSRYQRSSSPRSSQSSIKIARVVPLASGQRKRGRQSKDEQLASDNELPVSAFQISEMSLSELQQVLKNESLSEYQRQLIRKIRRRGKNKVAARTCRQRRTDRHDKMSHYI

Phospholipase A2 = Phospholipase A2 (Homo sapiens, UniProt P04054); format: functional;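 note: confirmatory dose-response counterscreen on phospholipase A2, testing hits that came from an ultra-high-throughput screen for ATG4B inhibitors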
[19] = IGROV1 cell killing – plate reader, dry powder samples, PAX8 inhibitor project, dose response (AID 743043); format: functional, cell-based; conditions: IGROV-1
[20] = OVCAR8 cell viability loss – plate reader, dry powder samples, PAX8 project, dose response (AID 743197); format: functional, cell-based; conditions: OVCAR-8
[21] = OVCAR-3 cell viability loss – plate reader, dry powder samples, PAX8 inhibitor project, dose response (AID 743044); format: functional, cell-based
Paired box protein Pax-8 = Paired box protein Pax-8 (Homo sapiens, UniProt Q06710); assay: PAX8 transcriptional activity inhibition in RMG-I – RMG-I cells, luciferase, cherry-pick, dose response (AID 687027); format: functional, cell-based;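 note: luciferase reporter driven by Pax8 target thyroperoxidase promoter measured by SteadyGlo luminescence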
[22] = toxicity toward immortalized ovarian surface epithelium – cell-based, plate reader, dry powder samples, cytotoxicity control for PAX8 inhibitor project, dose response (AID 743045); format: functional
[23] = A2780 cell killing – plate reader, dry powder samples, cytotoxicity control, dose response (AID 743046); format: functional, cell-based
[24] = inhibition of Env-driven cell fusion – HIV entry, plate reader, dry powder, dose response (AID 687023); format: functional, cell-based
[25] = inhibitors of non-replicating M. tuberculosis, dose response, luciferase, dry powder (AID 651619); format: functional; conditions: Mycobacterium tuberculosis
[26] = inhibitors of non-replicating M. tuberculosis, dose response, luciferase, dry powder (AID 651620); format: functional; conditions: Mycobacterium tuberculosis
[27] = HeLa cell viability loss – plate reader, dry powder, cytotoxicity control, dose response (AID 651946); format: functional, cell-based
[28] = growth inhibition of replicating M. tuberculosis, dose response, counter-screen, dry powder, IC90 (AID 651617); format: functional; conditions: Mycobacterium tuberculosis
[29] = general mammalian cell viability loss – inhibitor set, cherry-pick, set 2, cytotoxicity control for miR-122 modulator project, dose response (AID 720697); format: functional, cell-based
[30] = blockers of FN fibrillogenesis by fibroblasts – AH1F cells, Alexa488-FN fluorescence, cherry-picks, dose response (AID 1035475); format: functional, cell-based
[31] = viability loss in HEK293 kidney cells – cell-based, cherry-picks, set 5, cytotoxicity control, dose response (AID 1053117); format: functional
[32] = viability loss in HepG2 hepatoma cells – cell-based, cherry-picks, set 5, cytotoxicity control, dose response (AID 1053118); format: functional

O=C(CSc1ccc(-c2ccccn2)nn1)Nc1ccccc1
AC50 [1]: 25.8 µM (active)
AC50 [2]: 35.3 µM (active)
AC50 [3]: > 52 µM (inactive)

COc1ccc(NC(=O)NNC(=O)c2cc3ccccc3cc2O)cc1
EC50 [4]: > 160 µM (inactive)
IC50 (Albumin): > 94.1 µM (inactive)
EC50 [5]: > 38 µM (not active)

COC(=O)c1cn(C(=O)c2ccc(OC)cc2)c2ccccc12
EC50 [6]: > 120 µM (not active)
AC50 [7]: > 30 µM (inactive)
EC50 (H4): > 120 µM (not active)
EC50 [8]: 9.72 µM (active)

C[C@]1(C(=O)NCCc2c[nH]c3ccccc23)C=C[C@@H](Cc2ccccc2)N1C(=O)c1ccccc1
AC50 (A549): 20.6 µM (active)

Oc1nc(SCc2nnc(S)n2-c2ccccc2)nc2sc3c(c12)CCC3
IC50 (Beta-lactamase [9]): > 59.6 µM (inactive)
IC50 (Beta-lactamase [10]): > 59.6 µM (inactive)
IC50 [11]: 6.63 µM (active)
IC50 (Beta-lactamase [12]): > 59.6 µM (inactive)
EC50 [13]: > 53 µM (inactive)
IC50 [14]: 13.5 µM (active)

Cc1cccc2c(=O)c(-c3ccc4c(c3)OCO4)c(NC(=O)c3ccco3)oc12
IC50 (Major prion protein): 9.57 µM (active)
IC50 (cells): > 138 µM (inactive)

COc1ccc2c(c1OC)C(=O)OC2Nc1nc(-c2ccc(-c3ccccc3)cc2)cs1 (stereo not given)
EC50 [15]: 0.254 µM (active)
IC50 (Cysteine protease ATG4B): 8.28 µM (active)
EC50 [16]: 0.396 µM (active)
EC50 [17]: 0.284 µM (active)
IC50 [18]: 6.08 µM (active)
IC50 (Protein skinhead-1): 18.7 µM (active)
EC50 [8]: < 0.1 µM (active)
IC50 (Phospholipase A2): 17.1 µM (active)

C[C@H]1CCCCO[C@H](CN(C)Cc2ccc(C(F)(F)F)cc2)[C@@H](C)CN([C@@H](C)CO)C(=O)c2cc(NC(=O)Cc3ccccc3)ccc2O1
AC50 [19]: 31.9 µM (active)
AC50 [20]: 53 µM (active)
AC50 [21]: 29.7 µM (active)
AC50 (Paired box protein Pax-8): 7.6 µM (active)

COc1ccc(-c2ccc3c(c2)[C@@H]2[C@@H](CCN2C(=O)NC2CCCCC2)[C@H](CO)N3C)cc1
AC50 [22]: 46.8 µM (active)
AC50 [20]: > 60 µM (inactive)
AC50 [23]: 32.8 µM (active)
AC50 [21]: 49.5 µM (active)
AC50 (Paired box protein Pax-8): 10.7 µM (active)

CCOc1ccc(OCC)c(S(=O)(=O)NCc2ccncc2)c1
AC50 [24]: > 70 µM (inactive)

[O-][S+](Cc1ccccc1)c1nnc(-c2ccccc2)o1 (stereo not given)
IC90 [25]: 1 µM (active)
IC90 [26]: 1 µM (active)
AC50 [27]: 32.2 µM (active)
IC90 [28]: 31 µM (active)

CCCNC(=O)Nc1ccc2c(c1)C(=O)N(C)[C@@H]1CC[C@@H](CC(=O)NCC3CCCCC3)O[C@@H]1CO2
AC50 [29]: 0.456 µM (active)

C[C@H](CO)N1C[C@H](C)[C@H](CN(C)Cc2ccc(-c3ccccc3)cc2)Oc2ccc(NC(=O)CCCN(C)C)cc2C1=O
AC50 [30]: 30.8 µM (active)
AC50 [31]: 12.7 µM (active)
AC50 [32]: 11.8 µM (active)

Source: ChEMBL document CHEMBL1201862, “PubChem BioAssay data set” (2004)
